Consider 2 substances from patent US20210046195A1, “FORMULATION AND METHOD OF PREPARATION” (GE HEALTHCARE AS, priority 2018, published 2021).

Bridge positions count the residues as written; N and C are the ends. Cy5∗∗ = not defined here

In experiment [1] the test system is HCT-15 tumours. The experiment in a line: In vivo testing in HCT-15 tumour-bearing nude mice, fluorescence imaging through laparoscope. The settings on record: 1 nmol per animal i.v.; excised tumour slice against normal colon. Further details: species or system BALB c/A nude (Bom) mice. An excerpt:
54 Female BALB c/A nude (Bom) mice were used in the study. The use of the animals was approved by the local ethics committee. BALB c/A nude is an inbred immunocompromised mouse strain with a high take rate for human tumours as compared to other nude mice strains. The mice were 4 weeks old upon arrival and with a body weight of approx. 20 grams at the start of the study. The animals were housed in individually ventilated cages (IVC, Scanbur BK) with HEPA filtered air. The animals had ad libitum access to “Rat and Mouse nr. 3 Breeding” diet (Scanbur BK) and tap water acidified by addition of HCl to a molar concentration of 1 mM (pH 3.0).
The colon cancer cell HCT-15 is derived from human colon carcinomas and is reported to express cMet according to Zeng et al [Clin. Exp. Metastasis, 21, 409-417. (2004)]. The cell line was proven to be tumorigenic when inoculated subcutaneously into nude mice [Flatmark et al, Eur. J. Cancer 40, 1593-1598 (2004)]. […]
Imaging was performed through a clinical laparoscope adapted to use a light source to excite the reporter and a filtering system to extract the fluorescence component. […]
Standard exposure time for colon imaging was 10 s. […] The images were visually scored using the standard scoring system employed for receiver operating characteristic analysis.

Experiment [2] deals with T1, mouse cMet/Fc chimera (Mus musculus, UniProt P16056).
T1 construct: Fc (immunoglobulin Fc fusion partner); purchased R&D Systems
The experiment in a line: In vitro fluorescence polarisation assay, mouse cMet. The experiment is classed as binding. The settings on record: dye-labelled peptide 20 nM; mouse cMet/Fc chimera 0-150 nM (tested range). The method, then: The principle of the fluorescence polarisation method can briefly be described as follows:
Monochromatic light passes through a […] polarizing filter and excites fluorescent molecules in the sample. Only those molecules that oriented properly in the vertically polarized plane adsorb light, become excited, and subsequently emit light. The emitted light is measured in both horizontal and vertical planes. The anisotropy value (A), is the ratio between the light intensities following the equation:
A=(Intensity with horizontal polarizer−Intensity with vertical polarizer)/(Intensity with horizontal polarizer+2* Intensity with vertical polarizer).
The fluorescence anisotropy measurements were performed in 384-well microplates in a volume of 10 μL in binding buffer (PBS, 0.01% Tween-20, pH 7.5) using a Tecan Safire fluorescence polarisation plate reader (Tecan, US) at ex646/em678 nm. The concentration of dye-labelled peptide was held constant (20 nM) and the concentrations of the human or mouse cMet/Fc chimera (R&D Systems) or Semaphorin 6A (R&D Systems) were varied from 0-150 nM. Binding mixtures were equilibrated in the microplate for 10 min at 30° C. The observed change in anisotropy was fit to the equation: […]
A general note: In fluorescence polarisation assays a small probe gives low polarisation when free and higher when bound to something large.

T1 sequence (P16056 with tags, fused parts or gaps limits assumed): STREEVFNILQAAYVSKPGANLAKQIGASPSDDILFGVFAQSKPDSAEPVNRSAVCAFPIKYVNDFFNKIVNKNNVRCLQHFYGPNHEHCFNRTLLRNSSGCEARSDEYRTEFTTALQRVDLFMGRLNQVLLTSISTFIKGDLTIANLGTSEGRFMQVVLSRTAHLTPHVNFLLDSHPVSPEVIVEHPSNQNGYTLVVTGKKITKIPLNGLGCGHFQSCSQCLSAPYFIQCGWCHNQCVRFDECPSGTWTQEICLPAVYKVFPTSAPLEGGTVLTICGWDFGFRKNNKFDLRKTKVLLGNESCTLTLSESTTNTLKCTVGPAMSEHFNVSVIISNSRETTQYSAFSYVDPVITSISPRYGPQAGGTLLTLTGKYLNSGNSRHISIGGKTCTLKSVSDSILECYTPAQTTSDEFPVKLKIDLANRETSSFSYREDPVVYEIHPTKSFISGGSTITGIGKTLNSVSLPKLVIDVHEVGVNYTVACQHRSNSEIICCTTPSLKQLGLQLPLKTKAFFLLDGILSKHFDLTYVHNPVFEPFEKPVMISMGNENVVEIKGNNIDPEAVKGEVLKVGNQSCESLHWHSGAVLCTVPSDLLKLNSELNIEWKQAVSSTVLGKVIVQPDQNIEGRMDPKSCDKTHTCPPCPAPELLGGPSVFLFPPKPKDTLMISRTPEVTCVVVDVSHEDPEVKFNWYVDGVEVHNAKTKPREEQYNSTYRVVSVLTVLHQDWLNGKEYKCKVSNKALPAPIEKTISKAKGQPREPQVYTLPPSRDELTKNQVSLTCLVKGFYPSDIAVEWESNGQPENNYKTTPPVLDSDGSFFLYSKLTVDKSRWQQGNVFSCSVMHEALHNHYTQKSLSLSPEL
T1 sequence (P16056 25-306 limits assumed, change not shown): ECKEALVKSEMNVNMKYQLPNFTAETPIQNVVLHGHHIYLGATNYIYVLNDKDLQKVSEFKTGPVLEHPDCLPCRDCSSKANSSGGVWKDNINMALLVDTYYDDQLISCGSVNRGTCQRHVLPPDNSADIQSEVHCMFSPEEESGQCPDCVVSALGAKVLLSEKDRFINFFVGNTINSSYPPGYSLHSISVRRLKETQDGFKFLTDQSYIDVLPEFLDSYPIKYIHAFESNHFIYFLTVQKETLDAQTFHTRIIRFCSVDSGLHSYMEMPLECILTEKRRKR

Turning to “Ac-TGECTCPYWEFRPCECGSYSGAGGGK(ϵ-Cy5**)-NH2 (Ac-TGECTCPYWEFRPCECGSYSGAGGGK(Cy5∗∗)-NH2; cysteine pairing not given here; reading uncertain; also: printed as Ac-TGECTCPYWEFRPCECGSYSGAGGGK(ϵ-Cy5**)-NH2) [Compound 7, negative control]”, in experiment [1], the “tumour to normal ratio” value was “did not discriminate between tumour and background”; the “visual identification of tumour against background” value is listed as “nothing was discernible against background”. Regarding “Cys4-16, 6-14; Ac-Ala-Gly-Ser-Cys-Tyr-Cys-Ser-Gly-Pro-Pro-Arg-Phe-Glu-Cys-Trp-Cys-Tyr-Glu-Thr-Glu-Gly-Thr-Gly-Gly-Gly-Lys(Cy5)-NH2 (Ac-AGSCYCSGPPRFECWCYETEGTGGGK(Cy5)-NH2; disulfide 6-14, 4-16) [Compound 3]”, in experiment [2], the “binding to mouse cMet” value is “no binding”.
